# Assay results as given in US20210127673A1, “HERBICIDES” (SYNGENTA PARTICIPATIONS AG, priority 2016, published 2021).
# How the values were obtained:
# Format in all cases: in vivo
# Settings in all cases: evaluated after 13 days
# [1] = test system: Triticum aestivium (TRZAW); assay: Pre-emergence herbicidal activity, Triticum aestivium; design: key: 5=total damage to plant; 0=no damage to plant
# Procedure, shortened: (§1)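 Pre-emergence spray, 1 d after sowing; formulation acetone/water 50:50 + 0.5% Tween 20. Glasshouse 24/16 °C, 14 h light, 65% RH, watered twice daily. Damage scored day 13, 0 (none) to 5 (total).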
# Avena fatua (AVEFA) [2] = assay: Pre-emergence herbicidal activity, Avena fatua; design: key: 5=total damage to plant; 0=no damage to plant
# Procedure, shortened: as §1
# [3] = test system: Alopecurus myosuroides (ALOMY); assay: Pre-emergence herbicidal activity, Alopecurus myosuroides; design: key: 5=total damage to plant; 0=no damage to plant
# Procedure, shortened: as §1
# [4] = test system: Echinochloa crus-galli (ECHCG); assay: Pre-emergence herbicidal activity, Echinochloa crus-galli; design: key: 5=total damage to plant; 0=no damage to plant
# Procedure, shortened: as §1
# Lolium perenne (LOLPE) [5] = assay: Pre-emergence herbicidal activity, Lolium perenne; design: key: 5=total damage to plant; 0=no damage to plant
# Procedure, shortened: as §1
# Setaria faberi (SETFA) [6] = assay: Pre-emergence herbicidal activity, Setaria faberi; design: key: 5=total damage to plant; 0=no damage to plant
# Procedure, shortened: as §1
# [7] = test system: Triticum aestivium (TRZAW); assay: Post-emergence herbicidal activity, Triticum aestivium; design: key: 5=total damage to plant; 0=no damage to plant
# Procedure, shortened: (§2)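 Post-em, 8 d plants, pots; acetone:water 1:1 + 0.5% Tween 20 spray; 24/16 °C, 14 h photoperiod, 65% RH; 13 d readout, 0–5 phytotoxicity scale.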
# Avena fatua (AVEFA) [8] = assay: Post-emergence herbicidal activity, Avena fatua
# Procedure, shortened: as §2
# [9] = test system: Alopecurus myosuroides (ALOMY); assay: Post-emergence herbicidal activity, Alopecurus myosuroides; design: key: 5=total damage to plant; 0=no damage to plant
# Procedure, shortened: as §2
# [10] = test system: Echinochloa crus-galli (ECHCG); assay: Post-emergence herbicidal activity, Echinochloa crus-galli; design: key: 5=total damage to plant; 0=no damage to plant
# Procedure, shortened: as §2
# Lolium perenne (LOLPE) [11] = assay: Post-emergence herbicidal activity, Lolium perenne; design: key: 5=total damage to plant; 0=no damage to plant
# Procedure, shortened: as §2
# Setaria faberi (SETFA) [12] = assay: Post-emergence herbicidal activity, Setaria faberi; design: key: 5=total damage to plant; 0=no damage to plant
# Procedure, shortened: as §2
Compound,Control of TRAZW after pre-emergence application (score 0-5) ([1]; 1000 g/ha),Control of AVEFA after pre-emergence application (score 0-5) (Avena fatua (AVEFA) [2]; 1000 g/ha),Control of ALOMY after pre-emergence application (score 0-5) ([3]; 1000 g/ha),Control of ECHCG after pre-emergence application (score 0-5) ([4]; 1000 g/ha),Control of LOLPE after pre-emergence application (score 0-5) (Lolium perenne (LOLPE) [5]; 1000 g/ha),Control of SETFA after pre-emergence application (score 0-5) (Setaria faberi (SETFA) [6]; 1000 g/ha),Control of TRAZW after post-emergence application (score 0-5) ([7]; 1000 g/ha),Control of AVEFA after post-emergence application (score 0-5) (Avena fatua (AVEFA) [8]; 1000 g/ha),Control of TRAZW after pre-emergence application (score 0-5) ([1]; 250 g/ha),Control of AVEFA after pre-emergence application (score 0-5) (Avena fatua (AVEFA) [2]; 250 g/ha),Control of ALOMY after pre-emergence application (score 0-5) ([3]; 250 g/ha),Control of ECHCG after pre-emergence application (score 0-5) ([4]; 250 g/ha),Control of LOLPE after pre-emergence application (score 0-5) (Lolium perenne (LOLPE) [5]; 250 g/ha),Control of SETFA after pre-emergence application (score 0-5) (Setaria faberi (SETFA) [6]; 250 g/ha),Control of TRAZW after post-emergence application (score 0-5) ([7]; 250 g/ha),Control of AVEFA after post-emergence application (score 0-5) (Avena fatua (AVEFA) [8]; 250 g/ha),Control of ALOMY after post-emergence application (score 0-5) ([9]; 250 g/ha),Control of ECHCG after post-emergence application (score 0-5) ([10]; 250 g/ha),Control of LOLPE after post-emergence application (score 0-5) (Lolium perenne (LOLPE) [11]; 250 g/ha),Control of SETFA after post-emergence application (score 0-5) (Setaria faberi (SETFA) [12]; 250 g/ha),also measured
N#CC1(NC(=O)Nc2ccc(-c3cncc(F)c3)nc2C(F)(F)F)CCC1 [Compound B81],0,1,1,5,1,5,1,3,,,,,,,,,,,,,Control of ALOMY after post-emergence application (score 0-5) ([9]; 1000 g/ha): 1; Control of ECHCG after post-emergence application (score 0-5) ([10]; 1000 g/ha): 5; Control of LOLPE after post-emergence application (score 0-5) (Lolium perenne (LOLPE) [11]; 1000 g/ha): 2; Control of SETFA after post-emergence application (score 0-5) (Setaria faberi (SETFA) [12]; 1000 g/ha): 5
CSCCCOC(=O)Nc1ccc(-c2cncc(F)c2)nc1C(F)(F)F [Compound B83],0,2,0,4,2,5,1,4,,,,,,,,,,,,,Control of ALOMY after post-emergence application (score 0-5) ([9]; 1000 g/ha): 0; Control of ECHCG after post-emergence application (score 0-5) ([10]; 1000 g/ha): 5; Control of LOLPE after post-emergence application (score 0-5) (Lolium perenne (LOLPE) [11]; 1000 g/ha): 3; Control of SETFA after post-emergence application (score 0-5) (Setaria faberi (SETFA) [12]; 1000 g/ha): 5
O=C(Nc1cc(Cl)cc(Cl)c1)Nc1ccc(-c2cncc(F)c2)nc1C(F)(F)F [Compound B88],,,,,,,,,0,0,0,1,2,2,0,1,0,1,0,1,
O=C(Nc1ccc(-c2cncc(F)c2)nc1C(F)(F)F)NC1CC1 [Compound B89],0,2,0,4,1,5,1,4,,,,,,,,,,,,,Control of ALOMY after post-emergence application (score 0-5) ([9]; 1000 g/ha): 0; Control of ECHCG after post-emergence application (score 0-5) ([10]; 1000 g/ha): 5; Control of LOLPE after post-emergence application (score 0-5) (Lolium perenne (LOLPE) [11]; 1000 g/ha): 2; Control of SETFA after post-emergence application (score 0-5) (Setaria faberi (SETFA) [12]; 1000 g/ha): 5
CC(C)CNC(=O)Nc1ccc(-c2cncc(F)c2)nc1C(F)(F)F [Compound B90],,,,,,,,,0,1,0,4,1,5,0,3,0,4,2,5,
CC(C)(C)COC(=O)Nc1ccc(-c2cncc(F)c2)nc1C(F)(F)F [Compound B91],,,,,,,,,1,1,0,2,1,5,0,2,0,2,1,5,
Cc1cnc(CNC(=O)Nc2ccc(-c3cncc(F)c3)nc2C(F)(F)F)cn1 [Compound B92],,,,,,,,,0,1,0,1,0,5,0,3,0,3,1,4,
O=C(Nc1ccc(-c2cncc(F)c2)nc1C(F)(F)F)OC1CCOCC1 [Compound B93],,,,,,,,,0,2,0,4,1,5,0,4,0,5,3,5,
O=C(Nc1ccc(-c2cncc(F)c2)nc1C(F)(F)F)OCC1CC1 [Compound B94],0,3,1,4,2,5,0,3,,,,,,,,,,,,,Control of ALOMY after post-emergence application (score 0-5) ([9]; 1000 g/ha): 0; Control of ECHCG after post-emergence application (score 0-5) ([10]; 1000 g/ha): 5; Control of LOLPE after post-emergence application (score 0-5) (Lolium perenne (LOLPE) [11]; 1000 g/ha): 3; Control of SETFA after post-emergence application (score 0-5) (Setaria faberi (SETFA) [12]; 1000 g/ha): 5
CCCCN(C)C(=O)Nc1ccc(-c2cncc(F)c2)nc1C(F)(F)F [Compound B95],,,,,,,,,0,0,0,1,1,4,0,3,0,2,1,5,
O=C(Nc1ccc(-c2cncc(F)c2)nc1C(F)(F)F)OCCC(F)(F)F [Compound B96],,,,,,,,,0,1,0,4,1,5,0,3,0,5,2,5,
O=C(NCc1cccnc1)Nc1ccc(-c2cncc(F)c2)nc1C(F)(F)F [Compound B97],,,,,,,,,0,0,0,0,0,0,0,2,0,1,1,1,
